Data on five compounds can be found in patent US12180194B2, “Multi-aziridine compound” (Covestro (Netherlands) B.V., priority 2018, dated 2024).

One series relates to Rtkn-GFP. The experiment in a line: ToxTracker genotoxicity assay, Rtkn-GFP reporter induction. Particulars: for Genotoxicity test, With S9 rat liver extract, Rtkn, 10 / Genotoxicity test, Without S9 rat liver extract, Rtkn, 10: GFP induction vs vehicle at 10% cytotoxicity; for Genotoxicity test, With S9 rat liver extract, Rtkn, 10 / Genotoxicity test, With S9 rat liver extract, Rtkn, 25 / Genotoxicity test, With S9 rat liver extract, Rtkn, 50: 3 h exposure with S9, 24 h recovery; for Genotoxicity test, Without S9 rat liver extract, Rtkn, 10 / Genotoxicity test, Without S9 rat liver extract, Rtkn, 25 / Genotoxicity test, Without S9 rat liver extract, Rtkn, 50: 24 h exposure, no S9; for Genotoxicity test, With S9 rat liver extract, Rtkn, 25 / Genotoxicity test, Without S9 rat liver extract, Rtkn, 25: GFP induction vs vehicle at 25% cytotoxicity; for Genotoxicity test, With S9 rat liver extract, Rtkn, 50 / Genotoxicity test, Without S9 rat liver extract, Rtkn, 50: GFP induction vs vehicle at 50% cytotoxicity; for Genotoxicity test, Rtkn induction level: fold induction.

The next series relates to Bscl2-GFP. Nature of the series: ToxTracker genotoxicity assay, Bscl2-GFP reporter induction. The note with it: for Genotoxicity test, With S9 rat liver extract, Bscl 2, 10 / Genotoxicity test, Without S9 rat liver extract, Bscl 2, 10: GFP induction vs vehicle at 10% cytotoxicity; for Genotoxicity test, With S9 rat liver extract, Bscl 2, 10 / Genotoxicity test, With S9 rat liver extract, Bscl 2, 25 / Genotoxicity test, With S9 rat liver extract, Bscl 2, 50: 3 h exposure with S9, 24 h recovery; for Genotoxicity test, Without S9 rat liver extract, Bscl 2, 10 / Genotoxicity test, Without S9 rat liver extract, Bscl 2, 25 / Genotoxicity test, Without S9 rat liver extract, Bscl 2, 50: 24 h exposure, no S9; for Genotoxicity test, With S9 rat liver extract, Bscl 2, 25 / Genotoxicity test, Without S9 rat liver extract, Bscl 2, 25: GFP induction vs vehicle at 25% cytotoxicity; for Genotoxicity test, With S9 rat liver extract, Bscl 2, 50 / Genotoxicity test, Without S9 rat liver extract, Bscl 2, 50: GFP induction vs vehicle at 50% cytotoxicity; for Genotoxicity test, Bscl 2 induction level: fold induction.

Where [1] appears, read: with S9 rat liver extract, concentration 10 (10% cytotoxicity).
Setting [2] is: with S9 rat liver extract, concentration 25 (25% cytotoxicity).
Setting [3] is: with S9 rat liver extract, concentration 50 (50% cytotoxicity).
The mark [4] stands for this setting: without S9 rat liver extract, concentration 10 (10% cytotoxicity).
[5] abbreviates: without S9 rat liver extract, concentration 25 (25% cytotoxicity).
[6] abbreviates: without S9 rat liver extract, concentration 50 (50% cytotoxicity).

Take `CC(CN1CC1C)OC(=O)NCCCCCCNC(=O)OC(C)CN1CC1C` (stereo not shown) [Comp. Ex. 6, reference compound]: in the series with Rtkn-GFP, the “Genotoxicity test, With S9 rat liver extract, Rtkn, 10” value amounted to 2.2 fold; the “Genotoxicity test, Without S9 rat liver extract, Rtkn, 10” value is 2.1 fold; the “Genotoxicity test, With S9 rat liver extract, Rtkn, 25” value is 3.4 fold; the “Genotoxicity test, Without S9 rat liver extract, Rtkn, 25” value worked out at 3.1 fold. Also, in the series with Rtkn-GFP, the “Genotoxicity test, With S9 rat liver extract, Rtkn, 50” value came out at 2.1 fold and the “Genotoxicity test, Without S9 rat liver extract, Rtkn, 50” value amounted to 3.1 fold. In the series on Bscl2-GFP, the “Genotoxicity test, With S9 rat liver extract, Bscl 2, 10” value was determined as 1.4 fold; the “Genotoxicity test, Without S9 rat liver extract, Bscl 2, 10” value was 1.4 fold; the “Genotoxicity test, With S9 rat liver extract, Bscl 2, 25” value amounted to 2.1 fold; the “Genotoxicity test, Without S9 rat liver extract, Bscl 2, 25” value turned out to be 2.0 fold. For the same compound, in the series with Bscl2-GFP, the “Genotoxicity test, With S9 rat liver extract, Bscl 2, 50” value was determined as 2.3 fold and the “Genotoxicity test, Without S9 rat liver extract, Bscl 2, 50” value is recorded as 2.0 fold.

With `CCCCOCC(CN1CC1CC)OC(=O)NCCCCCCn1c(=O)n(CCCCCCNC(=O)OC(COCCCC)CN2CC2CC)c(=O)n(CCCCCCNC(=O)OC(COCCCC)CN2CC2CC)c1=O` (stereo not shown) [Ex. 32], the “Genotoxicity test, Rtkn induction level” value with Rtkn-GFP (setting [1]) stood at 1.0; in the series with Rtkn-GFP (setting [2]), 1.1; with Rtkn-GFP (setting [3]), 1.1; in the series with Rtkn-GFP (setting [4]), 1.0; in the series with Rtkn-GFP (setting [5]) it was 1.1; with Rtkn-GFP (setting [6]) it was 1.1. For the same compound, the “Genotoxicity test, Bscl 2 induction level” value in the series on Bscl2-GFP (setting [1]) is 1.1; in the series with Bscl2-GFP (setting [2]), 1.1; in the series with Bscl2-GFP (setting [3]) it was 1.1; with Bscl2-GFP (setting [4]), 1.1; in the series on Bscl2-GFP (setting [5]) it was 1.2; with Bscl2-GFP (setting [6]), 1.3.

Turning to `CCCCOCC(CN1CC1C)OC(=O)NCCCCCCNC(=O)OC(COCCCC)CN1CC1C` (stereo not shown) [Comp. Ex. 10, reference compound], in the series on Rtkn-GFP, the “Genotoxicity test, With S9 rat liver extract, Rtkn, 10” value is recorded as 1.5 fold; the “Genotoxicity test, Without S9 rat liver extract, Rtkn, 10” value is recorded as 1.2 fold; the “Genotoxicity test, With S9 rat liver extract, Rtkn, 25” value was 2.3 fold; the “Genotoxicity test, Without S9 rat liver extract, Rtkn, 25” value was 1.9 fold. For the same compound, in the series on Rtkn-GFP, the “Genotoxicity test, With S9 rat liver extract, Rtkn, 50” value was 2.2 fold and the “Genotoxicity test, Without S9 rat liver extract, Rtkn, 50” value is recorded as 1.9 fold. Further, in the series on Bscl2-GFP, the “Genotoxicity test, With S9 rat liver extract, Bscl 2, 10” value worked out at 1.3 fold; the “Genotoxicity test, Without S9 rat liver extract, Bscl 2, 10” value was 1.3 fold; the “Genotoxicity test, With S9 rat liver extract, Bscl 2, 25” value came to 1.5 fold; the “Genotoxicity test, Without S9 rat liver extract, Bscl 2, 25” value amounted to 1.5 fold. Also, in the series on Bscl2-GFP, the “Genotoxicity test, With S9 rat liver extract, Bscl 2, 50” value was determined as 1.5 fold and the “Genotoxicity test, Without S9 rat liver extract, Bscl 2, 50” value is listed as 1.6 fold.

As to `CCC(CN1CC1C)OC(=O)NCCCCCCn1c(=O)n(CCCCCCNC(=O)OC(CC)CN2CC2C)c(=O)n(CCCCCCNC(=O)OC(CC)CN2CC2C)c1=O` (stereo not shown) [Ex. 7], in the series with Rtkn-GFP, the “Genotoxicity test, With S9 rat liver extract, Rtkn, 10” value was 1.1 fold; the “Genotoxicity test, Without S9 rat liver extract, Rtkn, 10” value stood at 1.1 fold; the “Genotoxicity test, With S9 rat liver extract, Rtkn, 25” value came to 1.3 fold; the “Genotoxicity test, Without S9 rat liver extract, Rtkn, 25” value stood at 1.3 fold. The “Genotoxicity test, With S9 rat liver extract, Rtkn, 50” value with Rtkn-GFP amounted to 1.5 fold. In the series on Bscl2-GFP, the “Genotoxicity test, With S9 rat liver extract, Bscl 2, 10” value stood at 1.1 fold; the “Genotoxicity test, Without S9 rat liver extract, Bscl 2, 10” value turned out to be 1.1 fold; the “Genotoxicity test, With S9 rat liver extract, Bscl 2, 25” value was determined as 1.3 fold; the “Genotoxicity test, Without S9 rat liver extract, Bscl 2, 25” value is 1.1 fold. In the series on Bscl2-GFP, the “Genotoxicity test, With S9 rat liver extract, Bscl 2, 50” value came out at 1.5 fold.

Regarding `CC(CN1CC1C)OC(=O)NC1CCC(CC2CCC(NC(=O)OC(C)CN3CC3C)CC2)CC1` (stereo not shown) [Comp. Ex. 9, reference compound], in the series on Rtkn-GFP, the “Genotoxicity test, With S9 rat liver extract, Rtkn, 10” value is on record as 1.6 fold; the “Genotoxicity test, Without S9 rat liver extract, Rtkn, 10” value was found to be 1.5 fold; the “Genotoxicity test, With S9 rat liver extract, Rtkn, 25” value came out at 2.6 fold; the “Genotoxicity test, Without S9 rat liver extract, Rtkn, 25” value was determined as 2.2 fold. In addition, in the series with Rtkn-GFP, the “Genotoxicity test, With S9 rat liver extract, Rtkn, 50” value came out at 3.7 fold and the “Genotoxicity test, Without S9 rat liver extract, Rtkn, 50” value turned out to be 3.3 fold. In addition, in the series on Bscl2-GFP, the “Genotoxicity test, With S9 rat liver extract, Bscl 2, 10” value turned out to be 1.2 fold; the “Genotoxicity test, Without S9 rat liver extract, Bscl 2, 10” value amounted to 1.2 fold; the “Genotoxicity test, With S9 rat liver extract, Bscl 2, 25” value was determined as 1.6 fold; the “Genotoxicity test, Without S9 rat liver extract, Bscl 2, 25” value came to 1.6 fold. Besides, in the series with Bscl2-GFP, the “Genotoxicity test, With S9 rat liver extract, Bscl 2, 50” value is given as 2.0 fold and the “Genotoxicity test, Without S9 rat liver extract, Bscl 2, 50” value worked out at 2.2 fold.
